# Source: patent US4791215A, “Derivatives of glutamic acid and aspartic acid” (priority 1984, dated 1988)
# Key:
# morphine analgesia = test: Increase in analgesia of morphine, Tail Flick Test (Experiment 1); assay type: in vivo, rats; settings: for percentage variation of latency of pain sensation / M (10-90) ± SE, mean percentage variation of latency: compound 10 mg/kg i.p. + morphine 2 mg/kg; for M (10-90) ± SE, mean percentage variation of latency: mean 10-90 min; for Power ratio with respect to morphine alone: rat, in vivo
# Summary of the method: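 Non-fasted male rats (150-200 g); a tail point is exposed to a 75 °C heat source and latency to tail movement recorded, 8 s cut-off. Readings taken before and 10, 20, 30, 45, 60 and 90 min after analgesic treatment; percentage variation calculated per animal.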
# [1] = test system: endogenous opiates analgesia; test: Analgesic activity of endogenous opiates released by transcutaneous shock, Tail Flick Test (Experiment 3); assay type: in vivo, rats
# Experimental: Experiment No. 3: Influence of several of the compounds of the invention on the analgesic activities of endogenous opiates released by transcutaneous shock in rats and measured by the Tail Flick Test
# The method is that described by Lewis et al. J. Neurosc. 1, 358 […]. Male rats which have not fasted and have a weight of about 200 g are used.
# The animals are stressed by the application of a 60 Hz-2.5 mA current to the front leg in pulses of a duration of 1 second every 5 seconds for 20 minutes.
# This stress regime induces the release of endogenous opiates.
# [2] = test system: CCK-8 induced contraction of guinea pig gall bladder; test: Anti-CCK activity on gall bladder strips in vitro; settings: CCK-8 10 ng/ml
# Summary of the method: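 Longitudinal guinea pig gall bladder strips in Krebs at 32 °C, gassed with O2/CO2 95:5, were contracted with 10 ng/ml CCK-8. Isometric force was recorded across several compound concentrations, and ED50 was taken as the μg/ml concentration antagonising 50% of the CCK contraction.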
# [3] = Body weight on daily oral dosing; assay type: in vivo, rats
# Experimental: (§1) In order to check the hypothesis that the anti-CCK activity shown by most of the compounds in question may be used to advantage in the treatment of anorexia in man or as an appetite stimulant for farm animals, the following experiment was carried out:
# (§2) Male rats having a weight of about 160 g, divided into groups of 10 animals, were used. […]
# (§3) The drug, in the form of the sodium salt, was dissolved in water and administered in a volume of 10 ml of H2 O/kg while the control group received an equal volume of the solvent alone.
# (§4) The following tables give the average values of the food consumption and the average weight of each group of animals, calculated weekly as well as the Student's t value calculated from the various treated groups and the group of control animals.
# [4] = Food consumption on daily oral dosing; assay type: in vivo, rats
# Experimental: as §1, §2, §3, §4
# [5] = compound 1 mg/kg iv + stress, 5'
# [6] = compound 1 mg/kg iv + stress, 10'
# [7] = compound 1 mg/kg iv + stress, 15'
# [8] = compound 3 mg/kg iv + stress, 5'
# [9] = compound 3 mg/kg iv + stress, 10'
# [10] = compound 3 mg/kg iv + stress, 15'
smiles,measurement,setting,value
CCCN(CCC)C(=O)C(CCC(=O)O)NC(=O)c1cccc(C#N)c1 (stereo not drawn) [Compound C-20],percentage variation of latency of pain sensation,morphine analgesia; 10',53.8%
same,percentage variation of latency of pain sensation,morphine analgesia; 20',85.7 ± 10.0%
same,percentage variation of latency of pain sensation,morphine analgesia; 30',92.0 ± 8.0%
same,percentage variation of latency of pain sensation,morphine analgesia; 45',99.1 ± 1.0%
same,percentage variation of latency of pain sensation,morphine analgesia; 60',91.2 ± 9.0%
same,percentage variation of latency of pain sensation,morphine analgesia; 90',51.2%
same,"M (10-90) ± SE, mean percentage variation of latency",morphine analgesia,78.8 ± 21.0%
same,Power ratio with respect to morphine alone,morphine analgesia,2.64
same,"average latency, Tail Flick",[1]; [5],7.5 ± 0.3 s
same,"average latency, Tail Flick",[1]; [6],5.34 ± 0.46 s
same,"average latency, Tail Flick",[1]; [7],3.88 ± 0.29 s
same,"average latency, Tail Flick",[1]; [8],8.48 ± 0.62 s
same,"average latency, Tail Flick",[1]; [9],6.42 ± 0.21 s
same,"average latency, Tail Flick",[1]; [10],4.98 ± 0.36 s
same,ED50 (concentration antagonising 50% of contracting effect of CCK-8),[2],> 200 µg/mL
CCCN(CCC)C(=O)C(CCC(=O)O)NC(=O)c1ccc(C)c(C)c1 (stereo not drawn) [Compound C-30],percentage variation of latency of pain sensation,morphine analgesia; 10',69.9 ± 16%
same,percentage variation of latency of pain sensation,morphine analgesia; 20',100.0 ± 0%
same,percentage variation of latency of pain sensation,morphine analgesia; 30',95.2 ± 4.8%
same,percentage variation of latency of pain sensation,morphine analgesia; 45',91.8 ± 8%
same,percentage variation of latency of pain sensation,morphine analgesia; 60',100%
same,percentage variation of latency of pain sensation,morphine analgesia; 90',100.0 ± 0%
same,"M (10-90) ± SE, mean percentage variation of latency",morphine analgesia,92.8 ± 12%
same,Power ratio with respect to morphine alone,morphine analgesia,3.11
same,"average latency, Tail Flick",[1]; [5],7.26 ± 0.52 s
same,"average latency, Tail Flick",[1]; [6],6.10 ± 0.49 s
same,"average latency, Tail Flick",[1]; [7],4.68 ± 0.5 s
same,"average latency, Tail Flick",[1]; [8],9.46 ± 0.64 s
same,"average latency, Tail Flick",[1]; [9],7.96 ± 0.61 s
same,"average latency, Tail Flick",[1]; [10],6.82 ± 0.78 s
same,ED50 (concentration antagonising 50% of contracting effect of CCK-8),[2],33.5 µg/mL
same,body weight,"[3]; 3 mg/kg os, time 0",270.8 ± 8.3 g
same,body weight,"[3]; 3 mg/kg os, week 1",310.2 ± 7.01 g
same,body weight,"[3]; 3 mg/kg os, week 2",380.5 ± 6.5 g
same,body weight,"[3]; 3 mg/kg os, week 3",409.7 ± 2.99 g
same,body weight,"[3]; 3 mg/kg os, week 4",437.3 ± 55 g
same,body weight,"[3]; 10 mg/kg os, time 0",271.4 ± 9.3 g
same,body weight,"[3]; 10 mg/kg os, week 1",332.9 ± 5.7 g
same,body weight,"[3]; 10 mg/kg os, week 2",383.2 ± 6.5 g
same,body weight,"[3]; 10 mg/kg os, week 3",439.1 ± 4.3 g
same,body weight,"[3]; 10 mg/kg os, week 4",470.5 ± 6.5 g
same,body weight,"[3]; 30 mg/kg os, time 0",267.9 ± 7.7 g
same,body weight,"[3]; 30 mg/kg os, week 1",315.7 ± 7.4 g
same,body weight,"[3]; 30 mg/kg os, week 2",371.9 ± 7.9 g
same,body weight,"[3]; 30 mg/kg os, week 3",437.1 ± 5.2 g
same,body weight,"[3]; 30 mg/kg os, week 4",488.1 ± 6.4 g
same,food consumption,"[4]; 3 mg/kg os, week 1",193.7 ± 3.58 g/week
same,food consumption,"[4]; 3 mg/kg os, week 2",233.2 ± 4.56 g/week
same,food consumption,"[4]; 3 mg/kg os, week 3",187.1 ± 8.40 g/week
same,food consumption,"[4]; 3 mg/kg os, week 4",204.0 ± 3.63 g/week
same,food consumption,"[4]; 10 mg/kg os, week 1",219.8 ± 5.62 g/week
same,food consumption,"[4]; 10 mg/kg os, week 2",264.3 ± 5.61 g/week
same,food consumption,"[4]; 10 mg/kg os, week 3",234.5 ± 5.05 g/week
same,food consumption,"[4]; 10 mg/kg os, week 4",234.6 ± 3.99 g/week
same,food consumption,"[4]; 30 mg/kg os, week 1",233.7 ± 5.45 g/week
same,food consumption,"[4]; 30 mg/kg os, week 2",267.9 ± 4.92 g/week
same,food consumption,"[4]; 30 mg/kg os, week 3",247.0 ± 5.19 g/week
same,food consumption,"[4]; 30 mg/kg os, week 4",244.5 ± 4.06 g/week
CCCN(CCC)C(=O)C(CCC(=O)O)NC(=O)c1ccc(C(C)C)cc1 (stereo not drawn) [Compound C-36],percentage variation of latency of pain sensation,morphine analgesia; 10',8.6%
same,percentage variation of latency of pain sensation,morphine analgesia; 20',100.0 ± 0%
same,percentage variation of latency of pain sensation,morphine analgesia; 30',96.9 ± 3%
same,percentage variation of latency of pain sensation,morphine analgesia; 45',90.0 ± 10%
same,percentage variation of latency of pain sensation,morphine analgesia; 60',96.9 ± 3%
same,percentage variation of latency of pain sensation,morphine analgesia; 90',92.4 ± 25%
same,"M (10-90) ± SE, mean percentage variation of latency",morphine analgesia,80.8 ± 36%
same,Power ratio with respect to morphine alone,morphine analgesia,2.71
same,"average latency, Tail Flick",[1]; [5],6.9 ± 0.74 s
same,"average latency, Tail Flick",[1]; [6],6.5 ± 0.42 s
same,"average latency, Tail Flick",[1]; [7],4.66 ± 0.55 s
same,"average latency, Tail Flick",[1]; [8],9.22 ± 0.67 s
same,"average latency, Tail Flick",[1]; [9],8.1 ± 0.43 s
same,"average latency, Tail Flick",[1]; [10],9.28 ± 0.64 s
same,ED50 (concentration antagonising 50% of contracting effect of CCK-8),[2],13.4 µg/mL
CCCCN(CCCC)C(=O)CCC(NC(=O)c1ccc(Cl)c(Cl)c1)C(=O)O [Compound D-2],percentage variation of latency of pain sensation,morphine analgesia; 10',85.6 ± 14.0%
same,percentage variation of latency of pain sensation,morphine analgesia; 20',98.1 ± 2.0%
same,percentage variation of latency of pain sensation,morphine analgesia; 30',95.9 ± 4.0%
same,percentage variation of latency of pain sensation,morphine analgesia; 45',96.6 ± 3.0%
same,percentage variation of latency of pain sensation,morphine analgesia; 60',95.5 ± 3.0%
same,percentage variation of latency of pain sensation,morphine analgesia; 90',87.5 ± 6.0%
same,"M (10-90) ± SE, mean percentage variation of latency",morphine analgesia,93.2 ± 5.3%
same,Power ratio with respect to morphine alone,morphine analgesia,3.12
same,"average latency, Tail Flick",[1]; [5],9.2 ± 0.53 s
same,"average latency, Tail Flick",[1]; [6],7.0 ± 0.86 s
same,"average latency, Tail Flick",[1]; [7],5.28 ± 0.64 s
same,"average latency, Tail Flick",[1]; [8],9.6 ± 0.46 s
same,"average latency, Tail Flick",[1]; [9],7.24 ± 0.58 s
same,"average latency, Tail Flick",[1]; [10],5.08 ± 0.52 s
same,ED50 (concentration antagonising 50% of contracting effect of CCK-8),[2],> 200 µg/mL
